Tests used:
[1] = system: Ragweed, Common, Ambrosia artemisifolia; assay: Preemergence herbicidal evaluation, AMBEL; type: in vivo, L.; settings: 0.2500 kg/ha
Procedure, shortened: (§1)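 Seeds sown in potting soil in cups, then sprayed preemergence with compound in aqueous acetone at about 0.0156 to 0.500 kg per hectare. Greenhouse-grown; rated visually 4–5 weeks after treatment on a 0–9 scale (stand, vigor, malformation, size, chlorosis, appearance) versus untreated control.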

[2] = system: Corn, Field, Zea mays; assay: Preemergence herbicidal evaluation, ZEAMX; type: in vivo, L.; settings: 0.2500 kg/ha
Procedure, shortened: as §1

[3] = system: MOOVA Monochoria; assay: Preemergence weed control, flooded paddy (Table III); type: in vivo, Monochoria vaginalis; parameters: scale not given here
Description: (§2) Preemergence herbicidal activity under flooded paddy conditions is determined as follows: plant seeds or propagating organs are planted in the top 0.5 cm of silt loam soil in 32 oz. plastic containers with a diameter of 10.5 cm and no drainage holes. Water is added to these containers and maintained at 1.5 to 3 cm above the soil surface for the duration of the experiment. The test compounds are applied as aqueous/acetone mixtures 50/50 v/v pipetted directly into the flood water to give the equivalent of about 0.0313 to 0.500 kg/ha of active ingredient. The treated containers are placed on greenhouse benches and cared for in accordance with conventional greenhouse procedures. Three to four weeks after treatment, the test is terminated and each container is examined and herbicidal effect rated according to the rating system provided in Example 185. The compounds evaluated are reported by compound number given in Example 185.

[4] = system: SAGPY Arrowhead (Pygmaea); assay: as above; type: in vivo, Sagittaria pygmaea; parameters: scale not given here
Description: as §2

[5] = system: Wheat, Winter, cv Riband, Triticum aestivum; assay: Preemergence herbicidal evaluation, TRZAWR; type: in vivo; settings: 0.2500 kg/ha
Procedure, shortened: as §1

[6] = system: Wheat, Winter, cv Riband, Triticum aestivum; assay: Postemergence herbicidal evaluation, TRZAWR; type: in vivo
Procedure, shortened: (§3)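 Seedlings grown about two weeks were sprayed with compound in 50/50 acetone/water containing 0.5% TWEEN 20 at rates equivalent to about 0.0157–0.500 kg/ha, nozzle at 40 psi. Injury was rated visually 0–9 versus control four to five weeks after treatment; replicate tests averaged.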

[7] = system: MOOVA Monochoria; assay: Postemergence weed control, flooded paddy (Table IV); type: in vivo, Monochoria vaginalis; parameters: scale not given here
Procedure, shortened: (§4)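 Flooded greenhouse pots; water 1.5–3 cm over soil throughout. Weeds 3–5 cm, rice 1.5–2.5 leaf. Dose ~0.0313–0.500 kg/ha a.i., aqueous/acetone 50/50 v/v into flood water. Visual herbicidal rating at 3–4 wk.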

[8] = system: Barnyardgrass, Echinochloa crus-galli; assay: Preemergence herbicidal evaluation, ECHCG; type: in vivo, (L.) Beau; settings: 0.2500 kg/ha
Procedure, shortened: as §1

[9] = system: CYPSE Flatsedge; assay: Postemergence weed control, flooded paddy (Table IV); type: in vivo, Cyperus serotinus; parameters: scale not given here
Procedure, shortened: as §4

[10] = system: Rice, Tebonnet, Oryza sativa; assay: Postemergence herbicidal evaluation, ORYSAT; type: in vivo, (L.) Tebonnet
Procedure, shortened: as §3

[11] = system: ECHORC Watergrass (Calif.); assay: Preemergence weed control, flooded paddy (Table III); type: in vivo, Echinochloa oryzoides; parameters: scale not given here
Description: as §2

[12] = system: CYPIR Rice Flatsedge; assay: as above; type: in vivo, Cyperus iria; parameters: scale not given here
Description: as §2

[13] = system: CYPSE Flatsedge; assay: as above; type: in vivo, Cyperus serotinus; parameters: scale not given here
Description: as §2

[14] = system: Sicklepod, Cassia obtusifolia; assay: Preemergence herbicidal evaluation, CASOB; type: in vivo, L.; settings: 0.2500 kg/ha
Procedure, shortened: as §1

[15] = system: Corn, Field, Zea mays; assay: Postemergence herbicidal evaluation, ZEAMX; type: in vivo, L.
Procedure, shortened: as §3

[16] = system: Morningglory Spp., Ipomoea Spp.; assay: Preemergence herbicidal evaluation, IPOSS; type: in vivo; settings: 0.2500 kg/ha
From the text: (§5) Results of herbicide evaluation are expressed on a rating scale (0-9). The scale is based upon a visual observation of plant stand, vigor, malformation, size, chlorosis and overall plant appearance as compared with a control.
The preemergence herbicidal activity of the test compounds of the present invention is exemplified by the following tests in which the seeds of a variety of monocotyledonous and dicotyledonous plants are separately mixed with potting soil and planted on top of approximately one inch of soil in separate pint cups. After planting, the cups are sprayed with the selected aqueous acetone solution containing test compound in sufficient quantity to provide the equivalent of about 0.0156 to 0.500 kg per hectare of test compound per cup. The treated cups are then placed on greenhouse benches, watered and cared for in accordance with conventional greenhouse procedures. From four to five weeks after treatment, the tests are terminated and each cup is examined and rated according to the rating system provided in Example 185.
The compounds evaluated are reported by compound number given in Example 185.

[17] = system: Velvetleaf, Abutilon theophrasti; assay: Postemergence herbicidal evaluation, ABUTH; type: in vivo, Medic.
Procedure, shortened: as §3

[18] = system: Morningglory Spp., Ipomoea Spp.; assay: Postemergence herbicidal evaluation, IPOSS; type: in vivo; settings: 0.2500 kg/ha
Description: In the tests, seedling plants are grown in jiffy flats for about two weeks. The test compounds are dispersed in 50/50 acetone/water mixtures containing 0.5% TWEEN®20, a polyoxyethylene sorbitan monolaurate surfactant of Atlas Chemical Industries, in sufficient quantities to provide the equivalent of about 0.0157 kg to 0.500 kg per hectare of active compound when applied to the plants through a spray nozzle operating at 40 psi for a predetermined time. After spraying, the plants are placed on greenhouse benches and are cared for in accordance with conventional greenhouse procedures. From four to five weeks after treatment, the seedling plants are examined and rated according to the rating system set forth below. Where more than one test is involved for a given compound, the data are averaged.
as §5

[19] = system: Foxtail, Green, Setaria viridis; assay: Preemergence herbicidal evaluation, SETVI; type: in vivo, (L.) Beau; settings: 0.2500 kg/ha
Procedure, shortened: as §1

[20] = system: Rice, Tebonnet, Oryza sativa; assay: Preemergence herbicidal evaluation, ORYSAT; type: in vivo, (L.) Tebonnet; settings: 0.2500 kg/ha
Procedure, shortened: as §1

[21] = system: Sicklepod, Cassia obtusifolia; assay: Postemergence herbicidal evaluation, CASOB; type: in vivo, L.
Procedure, shortened: as §3

Cn1c(C(F)(F)F)cc(=O)n(-c2ccc3snc(-c4ccccc4)c3c2)c1=O [Compound 4, 1-Methyl-3-(3-phenyl-1,2-benzisothiazol-5-yl)-6-(trifluoromethyl)-2,4(1H,3H)-pyrimidinedione]
2.0: herbicidal effect rating ([4]; 0.0313 kg/ha) | herbicidal effect rating ([4]; 0.0625 kg/ha) | herbicidal effect rating ([13]; 0.0625 kg/ha)
9.0: herbicide rating (0-9) [1] | herbicidal effect rating ([3]; 0.0313 kg/ha) | herbicidal effect rating ([3]; 0.0625 kg/ha) | herbicidal effect rating ([3]; 0.1250 kg/ha) | herbicidal effect rating ([3]; 0.2500 kg/ha) | herbicidal effect rating ([3]; 0.5000 kg/ha) | herbicidal effect rating ([4]; 0.2500 kg/ha) | herbicidal effect rating ([4]; 0.5000 kg/ha) | herbicidal effect rating ([7]; 0.1250 kg/ha) | herbicidal effect rating ([7]; 0.2500 kg/ha) | herbicidal effect rating ([7]; 0.5000 kg/ha) | herbicide rating (0-9) [8] | herbicidal effect rating ([9]; 0.5000 kg/ha) | herbicidal effect rating ([11]; 0.0313 kg/ha) | herbicidal effect rating ([11]; 0.0625 kg/ha) | herbicidal effect rating ([11]; 0.1250 kg/ha) | herbicidal effect rating ([11]; 0.2500 kg/ha) | herbicidal effect rating ([11]; 0.5000 kg/ha) | herbicidal effect rating ([12]; 0.0313 kg/ha) | herbicidal effect rating ([12]; 0.0625 kg/ha) | herbicidal effect rating ([12]; 0.1250 kg/ha) | herbicidal effect rating ([12]; 0.2500 kg/ha) | herbicidal effect rating ([12]; 0.5000 kg/ha) | herbicidal effect rating ([13]; 0.1250 kg/ha) | herbicidal effect rating ([13]; 0.2500 kg/ha) | herbicidal effect rating ([13]; 0.5000 kg/ha) | herbicide rating (0-9) [14] | herbicide rating (0-9) [16] | herbicide rating (0-9) ([17]; 0.2500 kg/ha) | herbicide rating (0-9) [18] | herbicide rating (0-9) [19] | herbicide rating (0-9) ([21]; 0.2500 kg/ha)
6.0: herbicidal effect rating ([4]; 0.1250 kg/ha)
7.0: herbicide rating (0-9) [2] | herbicide rating (0-9) [5] | herbicidal effect rating ([9]; 0.1250 kg/ha) | herbicidal effect rating ([9]; 0.2500 kg/ha) | herbicide rating (0-9) [20]
3.0: herbicide rating (0-9) ([6]; 0.2500 kg/ha) | herbicide rating (0-9) ([10]; 0.2500 kg/ha) | herbicide rating (0-9) ([15]; 0.2500 kg/ha)

CCc1ccc(-c2nsc3ccc(-n4c(=O)cc(C(F)(F)F)n(C)c4=O)cc23)cc1 [Compound 5, 3-[3-(p-Ethylphenyl)-1,2-benzisothiazol-5-yl]-1-methyl-6-(trifluoromethyl)-2,4 (1H,3H)-pyrimidinedione]
3.0: herbicide rating (0-9) [2] | herbicide rating (0-9) ([10]; 0.2500 kg/ha) | herbicide rating (0-9) ([15]; 0.2500 kg/ha)
6.0: herbicidal effect rating ([13]; 0.1250 kg/ha)
0.0: herbicidal effect rating ([4]; 0.0313 kg/ha) | herbicidal effect rating ([4]; 0.0625 kg/ha) | herbicidal effect rating ([9]; 0.1250 kg/ha) | herbicidal effect rating ([9]; 0.2500 kg/ha) | herbicidal effect rating ([9]; 0.5000 kg/ha) | herbicidal effect rating ([13]; 0.0313 kg/ha)
4.0: herbicide rating (0-9) [5]
7.0: herbicidal effect rating ([4]; 0.2500 kg/ha) | herbicidal effect rating ([4]; 0.5000 kg/ha) | herbicidal effect rating ([13]; 0.5000 kg/ha) | herbicide rating (0-9) [20]
9.0: herbicide rating (0-9) [1] | herbicidal effect rating ([3]; 0.0313 kg/ha) | herbicidal effect rating ([3]; 0.0625 kg/ha) | herbicidal effect rating ([3]; 0.1250 kg/ha) | herbicidal effect rating ([3]; 0.2500 kg/ha) | herbicidal effect rating ([3]; 0.5000 kg/ha) | herbicidal effect rating ([7]; 0.1250 kg/ha) | herbicidal effect rating ([7]; 0.2500 kg/ha) | herbicidal effect rating ([7]; 0.5000 kg/ha) | herbicide rating (0-9) [8] | herbicidal effect rating ([11]; 0.0313 kg/ha) | herbicidal effect rating ([11]; 0.0625 kg/ha) | herbicidal effect rating ([11]; 0.1250 kg/ha) | herbicidal effect rating ([11]; 0.2500 kg/ha) | herbicidal effect rating ([11]; 0.5000 kg/ha) | herbicidal effect rating ([12]; 0.0313 kg/ha) | herbicidal effect rating ([12]; 0.0625 kg/ha) | herbicidal effect rating ([12]; 0.1250 kg/ha) | herbicidal effect rating ([12]; 0.2500 kg/ha) | herbicidal effect rating ([12]; 0.5000 kg/ha) | herbicide rating (0-9) [14] | herbicide rating (0-9) [16] | herbicide rating (0-9) ([17]; 0.2500 kg/ha) | herbicide rating (0-9) [18] | herbicide rating (0-9) [19] | herbicide rating (0-9) ([21]; 0.2500 kg/ha)
2.0: herbicidal effect rating ([4]; 0.1250 kg/ha) | herbicide rating (0-9) ([6]; 0.2500 kg/ha) | herbicidal effect rating ([13]; 0.0625 kg/ha)
8.0: herbicidal effect rating ([13]; 0.2500 kg/ha)

Cc1nsc2ccc(-n3c(=O)cc(C(F)(F)F)n(C)c3=O)cc12 [Compound 6, 1-Methyl-3-(3-methyl-1,2-benzisothiazol-5-yl)-6-(trifluoromethyl)-2,4(1H,3H)-pyrimidinedione]
4.0: herbicidal effect rating ([4]; 0.0625 kg/ha) | herbicidal effect rating ([13]; 0.0625 kg/ha)
3.5: herbicide rating (0-9) ([15]; 0.2500 kg/ha)
8.0: herbicide rating (0-9) [5] | herbicidal effect rating ([11]; 0.1250 kg/ha) | herbicide rating (0-9) [20] | herbicide rating (0-9) ([21]; 0.2500 kg/ha)
9.0: herbicide rating (0-9) [1] | herbicide rating (0-9) [2] | herbicidal effect rating ([3]; 0.0625 kg/ha) | herbicidal effect rating ([3]; 0.1250 kg/ha) | herbicidal effect rating ([3]; 0.2500 kg/ha) | herbicidal effect rating ([3]; 0.5000 kg/ha) | herbicidal effect rating ([4]; 0.5000 kg/ha) | herbicidal effect rating ([7]; 0.1250 kg/ha) | herbicidal effect rating ([7]; 0.2500 kg/ha) | herbicidal effect rating ([7]; 0.5000 kg/ha) | herbicide rating (0-9) [8] | herbicidal effect rating ([9]; 0.5000 kg/ha) | herbicidal effect rating ([11]; 0.2500 kg/ha) | herbicidal effect rating ([11]; 0.5000 kg/ha) | herbicidal effect rating ([12]; 0.0625 kg/ha) | herbicidal effect rating ([12]; 0.1250 kg/ha) | herbicidal effect rating ([12]; 0.2500 kg/ha) | herbicidal effect rating ([12]; 0.5000 kg/ha) | herbicidal effect rating ([13]; 0.2500 kg/ha) | herbicidal effect rating ([13]; 0.5000 kg/ha) | herbicide rating (0-9) [14] | herbicide rating (0-9) [16] | herbicide rating (0-9) ([17]; 0.0630 kg/ha) | herbicide rating (0-9) ([17]; 0.2500 kg/ha) | herbicide rating (0-9) [18] | herbicide rating (0-9) [19]
2.5: herbicide rating (0-9) ([21]; 0.0630 kg/ha)
4.5: herbicide rating (0-9) ([15]; 0.0630 kg/ha)
7.0: herbicidal effect rating ([4]; 0.1250 kg/ha) | herbicidal effect rating ([4]; 0.2500 kg/ha) | herbicidal effect rating ([9]; 0.1250 kg/ha) | herbicidal effect rating ([9]; 0.2500 kg/ha) | herbicidal effect rating ([13]; 0.1250 kg/ha)
1.5: herbicide rating (0-9) ([6]; 0.0630 kg/ha)
6.0: herbicidal effect rating ([11]; 0.0625 kg/ha)
1.8: herbicide rating (0-9) ([10]; 0.0630 kg/ha)
5.0: herbicide rating (0-9) ([6]; 0.2500 kg/ha) | herbicide rating (0-9) ([10]; 0.2500 kg/ha)

From patent US6156700A, “3-(1,2-Benzisothiazol- and isoxazol-5-yl)-2,4(1H,3H)-pyrimidinedione or thione and 3-(1,2-benzisothiazol- and isoxazol-5-yl)-4(3H)-pyrimidinone or thione herbicidal agents” (American Cyanmid Company, priority 1998, dated 2000)
